From US7625838B2, “[1, 2, 4] Triazolo [1, 5-A] pyrimidine derivatives as chromatographic adsorbent for the selective adsorption of IGG” (GE Healthcare Bio-Sciences AB, priority 2005, dated 2009)

Legend:
Format in all cases: binding
[1] = tested on: two different monoclonal antibodies (MAbs) and a commercially available Fc-fragment; assay: STD NMR screening for affinity towards IgG related proteins
Experimental: (§1) The screening procedure was based on in vitro screening using two independent in solution analytical techniques relying on saturation difference transfer NMR (STD NMR) and Surface Plasmon Resonace (SPR) methods.
In the NMR screen 69 substances were tested for affinity towards two different monoclonal antibodies (MAbs) and a commercially available Fc-fragment. Unspecific protein binding was investigated by testing for affinity towards α-amylase. Compounds that were found having affinity towards all three IgG related proteins, but no affinity towards α-amylase were assigned as potential candidates for affinity ligands towards the Fc-part of IgG.
(§2) Further structures (commercially available compounds) surrounding compound I were investigated in solution in order to optimize the affinity ligand candidate. These compounds were subject to a corresponding SPR and NMR analysis for affinity as was presented above. However this time only the Fc-fragment was used in the NMR screening while the SPR analysis was performed with the corresponding test proteins as in the first selection.

Fc-fragment = assay: SPR screen, Fc-fragment
Experimental: as §1
(§3) In the SPR screen 53 compounds were tested (non-soluble substances were excluded) for affinity towards a monoclonal antibody and a commercially available Fc-fragment. Analysis data were corrected for the different molecular weights and are presented as percentage of the theoretical maximal response.
(§4) In order to select potential candidates for further investigations SPR data were arranged in such a way that all substances with a response higher than 10% for both Fc fragment and IgG were selected as potential candidates. These compounds were compared with the ones indicated by the NMR-screening. It turned out that most of the SPR derived hits had been rejected in NMR screen due to unspecific binding towards α-amylase.
as §2

[2] = tested on: monoclonal antibody (IgG); assay: SPR screen, monoclonal antibody
Experimental: as §1, §3, §4, §2

Structure (SMILES) | outcome of NMR screen (affinity towards all three IgG related proteins, no affinity towards α-amylase) ([1]; STD NMR, two MAbs and Fc-fragment) | SPR response, percentage of the theoretical maximal response (Fc-fragment; Fc fragment, corrected for molecular weight) | SPR response, percentage of the theoretical maximal response ([2]; IgG (monoclonal antibody), corrected for molecular weight) | NMR affinity ([1]; second selection, only the Fc-fragment used in the NMR screening) | ranking for affinity towards Fc-fragment by SPR (Fc-fragment; second selection) | ranking for affinity towards IgG molecule as indicated by SPR ([2]; second selection)
CC(=O)Nc1nc2[nH]c(C)c(Cc3ccccc3)c(=O)n2n1 [Compound I] | selected as potential affinity candidate by both methods | higher than 10% | higher than 10% | – | – | –
CCOC(=O)c1c[nH]c2ncnn2c1=O [Compound II] | – | – | – | positive by NMR | at least medium ranking | high ranking
